Patent US4681940A, “5-[3-[[2-quinolyl]methoxy]phenyl]-1,3-oxazoles” (American Home Products Corporation, priority 1985, dated 1987)
Structures can show the parent of a compound that is named as a salt.

What was measured:
[1] = tested on: LTD4 induced bronchoconstriction; assay: In vivo inhibition of bronchospasm induced in guinea pigs by exogenously administered leukotrienes C4 and/or D4; design: species or system guinea pig (male Hartley); conditions: 10 minutes before induction of bronchospasm
Procedure: The assay of this Example measures the in vivo ability of the compounds of the invention to inhibit the bronchospasm induced in guinea pigs by the exogenously administered leukotrienes C4 and/or D4.
This assay is carried out as follows:
Male Hartley strain guinea pigs (350-600 g) are anesthetized with pentobarbital sodium (50 mg/kg, i.p.). The jugular vein is cannulated for injection of drugs and the carotid artery for monitoring blood pressure. The trachea is cannulated for artificial ventilation by a miniature Starling pump and for indirect measurement of respiratory volume changes as described infra. The animals are then pretreated with succinylcholine (2 mg/kg i.v.) and indomethacin (10 mg/kg i.v. in trizma 8.3 buffer, 9 minutes prior to leukotriene challenge). Submaximal bronchoconstrictor responses are established in control animals by varying the dose-levels of leukotriene. Intravenous dose-levels for LTC4 range from 0.4 to 0.6 μg/kg and for LTD4 the range is from 0.3 to 0.5 μg/kg. The aerosol bronchoprovocation dose for LTC4 is generated from 1.6 μM solution and for LTD4 from a 2.0 μM solution.
Test drugs (dissolved in a solvent such as propylene glycol, polyethylene glycol 400 or saline) are administered either intraduodenally, by aerosol or intragastrically at 2 or 10 minutes before induction of bronchospasm by administration of either LTC4 or LTD4 at the predetermined dose-levels. Aerosols of soluble drugs or leukotrienes are produced in-line for 10 seconds only by actuation of an ultrasonic nebulizer (Monaghan). Aerosolized drug dosage is expressed in terms of solution concentration and by a fixed aerosol exposure time (approximately 10 seconds). Control animals receive solvent (2 ml/kg i.d. or appropriate aerosol) in place of drug.
(§1) Respiratory volume changes are determined by a calibrated piston whose travel is recorded, via a linear transducer, on a Beckman Dynograph recorder. Maximal bronchoconstrictor volume is determined by clamping off the trachea at the end of the experiment. Overflow volumes at 1, 3 and 5 minutes are obtained from the recorded charts.
Area under the volume overflow curve (AUC) is estimated, using the overflow values at 1, 3 and 5 minutes, and expressed as a percentage of the maximal overflow AUC (equation 1): [formula] Drug effects are reported as percent inhibition of % max AUC values obtained from appropriate control animals (equation 2): [formula]
Student's t-test for unpaired data is used to determine statistical significance (p<0.05). IC50 values can also be determined by inverse prediction from linear regression lines through points between 10 and 90% inhibition.

[2] = tested on: synthesis of 5-HETE by rat glycogen elicited polymorphonuclear leukocytes; assay: Inhibition of 5-HETE synthesis by rat glycogen-elicited polymorphonuclear leukocytes; format: cell-based, rat (female Wistar); conditions: rat PMN
Procedure: The assay of this Example measures the ability of the compounds of the invention to inhibit the synthesis of 5 -HETE by rat glycogen elicited polymorphonuclear leukocytes.
(§2) The assay is carried out as follows:
Peritoneal PMN are obtained from female Wistar rats (150-250 g) that received an i.p. injection of 6% glycogen (10 ml). After 24 hours, rats are killed by CO2 asphyxiation and peritoneal cells are harvested by peritoneal lavage using Ca^++ and Mg^++ free Hanks' balanced salt solution (HBSS). The peritoneal exudate is centrifuged at 400 g for 10 minutes. After centrifugation, the lavaged fluid is removed and the cell pellet is resuspended in HBSS containing Ca^++ and Mg^++ and 10 mM L-cysteine at a concentration of 2×10^7 cells/ml. To 1 ml portions of cell suspension, test drugs or vehicle are added and incubated at 37° C. for 10 minutes. Following this preincubation, the calcium ionophore (10 μM), A23187, is added together with 0.5 μCi [^14 C] arachidonic acid and further incubated for 10 minutes. The reaction is stopped by the addition of ice cold water (3 ml) and acidifying to pH 3.5. Lipoxygenase products are then extracted twice into diethyl ether. The pooled ether extracts are evaporated to dryness under nitrogen and the residue is redissolved in a small volume of methanol and spotted on aluminum backed pre-coated thin layer chromatographic plates. The samples are then co-chromatographed with authentic reference 5-HETE in the solvent system--hexane:ether:acetic acid (50:50:3). After chromatography, the areas associated with 5-HETE standard are identified by autoradiography, cut out and quantitated by liquid scintillation.
The compounds of this invention are tested in this assay at a level of 50 μm, unless otherwise noted. The results are summarized in Table 1, where those compounds having an inhibition of >50% are designated by a "+". Some results are expressed as an IC50 value.

[3] = tested on: ovalbumin induced bronchospasm; assay: In vivo inhibition of ovalbumin-induced bronchospasm mediated by endogenous mediators in sensitized guinea pigs; design: species or system guinea pig (male Hartley); conditions: 50 mg/kg intraduodenal, 10 minutes before ovalbumin challenge
Procedure: The assay of this Example measures the in vivo ability of the compounds of the invention to inhibit the bronchospasm induced in guinea pigs by endogenous mediators of the bronchoconstriction.
as §2
Male Hartley strain guinea pigs weighing 250-350 g are sensitized to chicken ovalbumin (OA) (10 mg i.p.) on days 1 and 3 and used starting on day 26. The animals are anesthetized with pentobarbital sodium (50 mg/kg, i.p.), bilateral vagotomy is performed, and the jugular vein is cannulated for injection of drugs and the carotid artery for monitoring blood pressure. The trachea is cannulated for artificial ventilation by miniature Starling pump and for indirect measurement of respiratory volume changes as described, infra. Succinylcholine (2 mg/kg, i.v.) is administered to arrest spontaneous respiration. […]
as §1, with “volumes at minutes 1, 3” for “volumes at 1, 3”, “and 5 are obtained” for “and 5 minutes are obtained”
Area under the volume overflow curve (AUC) is estimated, using the overflow values at 1, 3 and 5 minutes, and expressed as a percentage of the maximal overflow AUC (equation 1): [formula] […]

With CN1CC(c2cccc(OCc3ccc4ccccc4n3)c2)OC1=O (stereo not drawn) [1 (as HCL salt), 5-[3-[(2-Quinolinyl)methoxy]phenyl]-3-methyl-2-oxazolidone] the “% Inhibition” value ([1]; 50 mg/kg, intraduodenally) was 65% and the “% Inhibition” value ([1]; 50 mg/kg, intragastrically) was 46%.

c1ccc(C2=NCC(c3cccc(OCc4ccc5ccccc5n4)c3)O2)nc1 (stereo not drawn) [Example 6, 4,5-Dihydro-5-[3-[(2-quinolinyl)methoxy]phenyl]-2-(2-pyridyl)-1,3-oxazole] was tested, and the “% Inhibition” value ([1]; 25 mg/kg, intraduodenally) was 96%.

CN1C[C@H](c2cccc(OCc3ccc4ccccc4n3)c2)OC1=O [Example 1 (as free base, S-enantiomer), 5-[3-[(2-Quinolinyl)methoxy]phenyl]-3-methyl-2-oxazolidone] was tested, and the “% Inhibition” value ([1]; 50 mg/kg, intraduodenally) was 99%.

CN1CC(c2cccc(OCc3ccc4ccccc4n3)c2)OC1=S (stereo not drawn) [Example 2, 5-[3-[(2-Quinolinyl)methoxy]phenyl]-3-methyl-2-thiaoxazolidone] was tested, and the “>50% Inhibitory at 50 μm” value [2] was “+ (inhibition of >50%)”.

With CN1C[C@@H](c2cccc(OCc3ccc4ccccc4n3)c2)OC1=O [Example 1 (as free base, R-enantiomer), 5-[3-[(2-Quinolinyl)methoxy]phenyl]-3-methyl-2-oxazolidone] the “% Inhibition” value ([1]; 50 mg/kg, intraduodenally) was 91%, the “% Inhibition” value ([1]; 50 mg/kg, intragastrically) was 65% and the ED50 ([1]; Cavia porcellus, 10 min, printed on the intraduodenal line, read-out: IC50 (the source's name)) was 8.6 mg/kg.

In the case of CCOC(=O)CC1=NCC(c2cccc(OCc3ccc4ccccc4n3)c2)O1 (stereo not drawn) [Example 8, 2-Ethoxycarbonylmethyl-4,5-dihydro-5-[3-[(2-quinolinyl)methoxy]phenyl]-1,3-oxazole], the “% Inhibition” value ([1]; 25 mg/kg, intraduodenally) is reported as 72%.

For CN1CC(c2cccc(OCc3ccc4ccccc4n3)c2)OC1=O (stereo not drawn) [1 (as free base), 5-[3-[(2-Quinolinyl)methoxy]phenyl]-3-methyl-2-oxazolidone], the “% Inhibition of Max AUC” value [3] was 69%.

In the case of c1cc(OCc2ccc3ccccc3n2)cc(C2CN=C(c3cccs3)O2)c1 (stereo not drawn) [Example 7, 4,5-Dihydro-5-[3-[(2-quinolinyl)methoxy]phenyl]-2-(2-thienyl)-1,3-oxazole], the “% Inhibition” value ([1]; 50 mg/kg, intraduodenally) is reported as 41%.

In the case of CN1C[C@@H](c2cccc(OCc3ccc4ccccc4n3)c2)OC1=O [Example 1, 5-[3-[(2-Quinolinyl)methoxy]phenyl]-3-methyl-2-oxazolidone], the IC50 ([2]; Leukocyte) is reported as 19.6 µM and the “>50% Inhibitory at 50 μm” value [2] is reported as “+ (inhibition of >50%)”.

In the case of CCC1=NCC(c2cccc(OCc3ccc4ccccc4n3)c2)O1 (stereo not drawn) [Example 5, 2-Ethyl-4,5-dihydro-5-[3-[(2-quinolinyl)methoxy]phenyl]-1,3-oxazole], the “% Inhibition” value ([1]; 25 mg/kg, intraduodenally) is reported as 77%.

For CN1CC(c2cccc(OCc3nc4ccccc4n3C)c2)OC1=O (stereo not drawn) [Example 4, 5-[3-[(1-Methyl-2-benzimidazoyl)]methoxy]phenyl-3-methyl-2-oxazolidone], the “% Inhibition” value ([1]; 50 mg/kg, intraduodenally) was 65%.
